What is called melting point is the temperature, or range, at which the solid turns liquid.

Bounds are passed on as bounds.

The values that follow come from patent US11753407B2, “Compounds for treating spinal muscular atrophy” (PTC Therapeutics, Inc., priority 2012, dated 2023).

Data set [1] has as its system SMN2 minigene mRNA (SMN2-A minigene) in HEK293H cells. Kind of data set: SMN2 minigene mRNA splicing RT-qPCR assay in cultured cells. In kind it is cell-based, human. The note with it: Homo sapiens, HEK293-H; concentration increasing full length SMN2 mRNA 1.5-fold relative to vehicle-treated cells; HEK293H cells with SMN2-A minigene, 24 hours, 7-point concentration data; read-out: EC1.5x for production of full length SMN2 mRNA. Summed up: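 Cells are seeded, left to attach 4-6 h, then dosed with test compound across seven concentrations and incubated 24 h. Lysates undergo RT-qPCR with primers/probe specific to the exon 7-containing minigene transcript, co-amplified with GAPDH. Fold change over vehicle is calculated, and EC1.5× marks the 1.5-fold point.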
In general terms: Real-time PCR tracks product formation cycle by cycle.

The test system of data set [2] is Smn protein in SMA patient fibroblast cells (GM03813). In words: Smn protein assay in cultured cells (SMN HTRF). In kind it is cell-based, human. The conditions noted are these: SMA patient fibroblast cells, 48 hours; for EC1.5x for Smn protein expression: 7-point concentration curve, SMN HTRF, concentration producing 1.5 times Smn protein vs DMSO vehicle control; for maximum fold (Fold) increase of Smn protein: 7-point concentration data, fold relative to vehicle control. The procedure, abridged: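 Patient-derived SMA fibroblasts are plated, given compound for 48 h, then lysed in RIPA buffer with protease inhibitors. Lysate Smn is detected by an anti-SMN d2/kryptate HTRF pair incubated overnight. The normalized ΔF is divided by the vehicle ΔF to give fold change, from which EC1.5× and maximum fold are taken.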
(TR-FRET usually uses a lanthanide donor and a delayed reading to cut background.)

Regarding `Cc1cn(-c2cc(=O)n3cc(N4CCN[C@@H](C)C4)ccc3n2)cn1` [Compound 180, 2-(4-methyl-1H-imidazol-1-yl)-7-[(3S)-3-methylpiperazin-1-yl]-4H-pyrido[1,2-a]pyrimidin-4-one], the melting point is 204 to 206 °C. Besides, the EC (1.5-fold increase) in data set [1] was 1 to 3 µM. Moreover, in data set [2], the “EC1.5x for Smn protein expression” value was “** (an EC1.5× between >1 μM and ≤3 μM is indicated by two stars (**))”; the “maximum fold (Fold) increase of Smn protein” value (shortened to “maximum fold (Fold) increase”) was “**** (a fold increase between >1.5 and ≤1.65 is indicated by four stars (****))”.

Consider `Cc1nc2ccc(-c3cc(=O)n4cc(N5CCC(N)C5)ccc4n3)cc2s1` (centres unmarked) [Compound 382, 7-(3-aminopyrrolidin-1-yl)-2-(2-methyl-1,3-benzothiazol-6-yl)-4H-pyrido[1,2-a]pyrimidin-4-one], for which the melting point was 196 to 200 °C. In addition, the EC (1.5-fold increase) in data set [1] was less than 0.1 µM. For the same molecule, in data set [2], the “EC1.5x for Smn protein expression” value was “*** (an EC1.5× between >0.3 μM and ≤1 μM is indicated by three stars (***))”; the “maximum fold (Fold) increase” value was “**** (a fold increase between >1.5 and ≤1.65 is indicated by four stars (****))”.

`Cc1cn2cc(-c3cc(=O)n4cc(C5=CCN(CCO)CC5)ccc4n3)ccc2n1` [Compound 577, 7-[1-(2-hydroxyethyl)-1,2,3,6-tetrahydropyridin-4-yl]-2-(2-methylimidazo[1,2-a]pyridin-6-yl)-4H-pyrido[1,2-a]pyrimidin-4-one] displayed a melting point of 248 to 250 °C. The EC (1.5-fold increase) in data set [1] is less than 0.1 µM. In addition, in data set [2], the “EC1.5x for Smn protein expression” value is “**** (an EC1.5x≤0.3 μM is indicated by four stars (****))” and the “maximum fold (Fold) increase” value is recorded as “***** (a fold increase >1.65 is indicated by five stars (*****))”.

Molecule `CCCN1CC=C(c2ccc3nc(-c4ccc5c(cnn5C)c4)cc(=O)n3c2)CC1` [Compound 464, 2-(1-methyl-1H-indazol-5-yl)-7-(1-propyl-1,2,3,6-tetrahydropyridin-4-yl)-4H-pyrido[1,2-a]pyrimidin-4-one] registered a melting point of 152 to 154 °C. The EC (1.5-fold increase) in data set [1] fell in the range of 0.1 to 0.3 µM. Besides, in data set [2], the “EC1.5x for Smn protein expression” value is “** (an EC1.5× between >1 μM and ≤3 μM is indicated by two stars (**))”; the “maximum fold (Fold) increase” value is “**** (a fold increase between >1.5 and ≤1.65 is indicated by four stars (****))”.

`O=c1cc(-c2cccc(Cl)c2)nc2ccc(N3CCNCC3)cn12` [Compound 41, 2-(3-chlorophenyl)-7-(piperazin-1-yl)-4H-pyrido[1,2-a]pyrimidin-4-one] returned a melting point of 185 to 189 °C. Besides, the EC (1.5-fold increase) in data set [1] fell in the range of 0.3 to 1 µM. In data set [2], the “maximum fold (Fold) increase” value was “*** (a fold increase between >1.35 and ≤1.5 is indicated by three stars (***))”.

On to `COc1ccc(-c2cc(=O)n3cc(N4CCC(N5CCOCC5)CC4)cc(C)c3n2)cc1OC` [Compound 419, 2-(3,4-dimethoxyphenyl)-9-methyl-7-[4-(morpholin-4-yl)piperidin-1-yl]-4H-pyrido[1,2-a]pyrimidin-4-one], for which the melting point lay in the range of 219 to 224 °C. In addition, the EC (1.5-fold increase) in data set [1] was in the range of 0.1 to 0.3 µM. Further, the “maximum fold (Fold) increase” value in data set [2] was “** (a fold increase between >1.2 and ≤1.35 is indicated by two stars (**))”.

For the molecule `COc1ccc(-c2ccc3nc(C4CCN(C)CC4)cc(=O)n3c2)cc1F` [Compound 317, 7-(3-fluoro-4-methoxyphenyl)-2-(1-methylpiperidin-4-yl)-4H-pyrido[1,2-a]pyrimidin-4-one], the melting point fell in the range of 202 to 205 °C. Besides, the EC (1.5-fold increase) in data set [1] is 0.3 to 1 µM. In addition, in data set [2], the “EC1.5x for Smn protein expression” value is “** (an EC1.5× between >1 μM and ≤3 μM is indicated by two stars (**))”; the “maximum fold (Fold) increase” value was “**** (a fold increase between >1.5 and ≤1.65 is indicated by four stars (****))”.

For `CCc1nc(C)cn2nc(-c3cc(=O)n4cc(N5CCN(C)[C@H](C)C5)cc(C)c4n3)cc12` [Compound 785, 7-[(3R)-3,4-dimethylpiperazin-1-yl]-2-(4-ethyl-6-methylpyrazolo[1,5-a]pyrazin-2-yl)-9-methyl-4H-pyrido[1,2-a]pyrimidin-4-one], the melting point was in the range of 234 to 240 °C. For the same molecule, the EC (1.5-fold increase) in data set [1] was less than 0.1 µM. Further, in data set [2], the “EC1.5x for Smn protein expression” value is reported as “**** (an EC1.5x≤0.3 μM is indicated by four stars (****))” and the “maximum fold (Fold) increase” value is recorded as “***** (a fold increase >1.65 is indicated by five stars (*****))”.

Turning to `Cc1cn2cc(-c3cc(=O)n4cc(N5CCN(C)[C@H](C)C5)ccc4n3)cc(F)c2n1` [Compound 296, 7-[(3R)-3,4-dimethylpiperazin-1-yl]-2-(8-fluoro-2-methylimidazo[1,2-a]pyridin-6-yl)-4H-pyrido[1,2-a]pyrimidin-4-one], the melting point is 279 to 282 °C. The EC (1.5-fold increase) in data set [1] is less than 0.1 µM. In addition, in data set [2], the “EC1.5x for Smn protein expression” value is listed as “**** (an EC1.5x≤0.3 μM is indicated by four stars (****))” and the “maximum fold (Fold) increase” value is reported as “***** (a fold increase >1.65 is indicated by five stars (*****))”.

`COc1ccc(-c2ccc3nc(C4=CCN(C)CC4)cc(=O)n3c2)cc1OC` [Compound 377, 7-(3,4-dimethoxyphenyl)-2-(1-methyl-1,2,3,6-tetrahydropyridin-4-yl)-4H-pyrido[1,2-a]pyrimidin-4-one] gave a melting point of 149 to 152 °C. Moreover, the EC (1.5-fold increase) in data set [1] was in the range of 0.3 to 1 µM. Moreover, in data set [2], the “EC1.5x for Smn protein expression” value was “** (an EC1.5× between >1 μM and ≤3 μM is indicated by two stars (**))”; the “maximum fold (Fold) increase” value is “**** (a fold increase between >1.5 and ≤1.65 is indicated by four stars (****))”.

Take `Cc1cc(C2CCN(C3CC3)CC2)cn2c(=O)cc(-c3ccc4nn(C)cc4c3)nc12` [Compound 718, 7-(1-cyclopropylpiperidin-4-yl)-9-methyl-2-(2-methyl-2H-indazol-5-yl)-4H-pyrido[1,2-a]pyrimidin-4-one]: the melting point was in the range of 226 to 231 °C. Besides, the EC (1.5-fold increase) in data set [1] was less than 0.1 µM. In data set [2], the “EC1.5x for Smn protein expression” value was “*** (an EC1.5× between >0.3 μM and ≤1 μM is indicated by three stars (***))”; the “maximum fold (Fold) increase” value is “**** (a fold increase between >1.5 and ≤1.65 is indicated by four stars (****))”.

`COc1ccc(-c2cc(=O)n3cc(C4CCNCC4)ccc3n2)cc1OC` [Cpd 144, 2-(3,4-dimethoxyphenyl)-7-(piperidin-4-yl)-4H-pyrido[1,2-a]pyrimidin-4-one] had a melting point of 214 to 217 °C. Further, in data set [1], the EC (1.5-fold increase) was less than 0.1 µM. Also, in data set [2], the “EC1.5x for Smn protein expression” value was “**** (an EC1.5x≤0.3 μM is indicated by four stars (****))”; the “maximum fold (Fold) increase” value was “**** (a fold increase between >1.5 and ≤1.65 is indicated by four stars (****))”.

`CCc1nc(C)cn2nc(-c3cc(=O)n4cc(C5CCNCC5)ccc4n3)cc12` [Compound 656, 2-(4-ethyl-6-methylpyrazolo[1,5-a]pyrazin-2-yl)-7-(piperidin-4-yl)-4H-pyrido[1,2-a]pyrimidin-4-one] had a melting point of 236 to 238 °C. Moreover, the EC (1.5-fold increase) in data set [1] was less than 0.1 µM. Besides, in data set [2], the “EC1.5x for Smn protein expression” value was “**** (an EC1.5x≤0.3 μM is indicated by four stars (****))”; the “maximum fold (Fold) increase” value is “**** (a fold increase between >1.5 and ≤1.65 is indicated by four stars (****))”.
